Results from ChEMBL document CHEMBL4004862, “Discovery of novel CDK8 inhibitors using multiple crystal structures in docking-based virtual screening” (Eur J Med Chem, 2017).

How the values were obtained:
[1] = biological target: T1, CDK8/Cyclin C (Homo sapiens) (UniProt P49336+P24863); assay: Inhibition of Alexa647 tracer binding to full length recombinant human His-tagged CDK8/Cyclin C expressed in baculovirus expression system at 5 uM preincubated for 20 mins followed by tracer addition measured after 60 mins by TR-FRET based Lanthascreen assay relative to control
[2] = biological target: T1, CDK8/Cyclin C (Homo sapiens); assay: Inhibition of Alexa647 tracer binding to full length recombinant human His-tagged CDK8/Cyclin C expressed in baculovirus expression system at 0.5 uM preincubated for 20 mins followed by tracer addition measured after 60 mins by TR-FRET based Lanthascreen assay relative to control
[3] = biological target: T1, CDK8/Cyclin C (Homo sapiens); assay: Inhibition of Alexa647 tracer binding to full length recombinant human His-tagged CDK8/Cyclin C expressed in baculovirus expression system at 1 uM preincubated for 20 mins followed by tracer addition measured after 60 mins by TR-FRET based Lanthascreen assay relative to control
[4] = biological target: T1, CDK8/Cyclin C (Homo sapiens); assay: Inhibition of Alexa647 tracer binding to full length recombinant human His-tagged CDK8/Cyclin C expressed in baculovirus expression system at 2.5 uM preincubated for 20 mins followed by tracer addition measured after 60 mins by TR-FRET based Lanthascreen assay relative to control
CDK8/Cyclin C = CDK8/Cyclin C (Homo sapiens, UniProt P49336); assay: Inhibition of Alexa647 tracer binding to full length recombinant human His-tagged CDK8/Cyclin C expressed in baculovirus expression system preincubated for 20 mins followed by tracer addition measured after 60 mins by TR-FRET based Lanthascreen assay
Sequence of CDK8/Cyclin C (P49336 whole entry): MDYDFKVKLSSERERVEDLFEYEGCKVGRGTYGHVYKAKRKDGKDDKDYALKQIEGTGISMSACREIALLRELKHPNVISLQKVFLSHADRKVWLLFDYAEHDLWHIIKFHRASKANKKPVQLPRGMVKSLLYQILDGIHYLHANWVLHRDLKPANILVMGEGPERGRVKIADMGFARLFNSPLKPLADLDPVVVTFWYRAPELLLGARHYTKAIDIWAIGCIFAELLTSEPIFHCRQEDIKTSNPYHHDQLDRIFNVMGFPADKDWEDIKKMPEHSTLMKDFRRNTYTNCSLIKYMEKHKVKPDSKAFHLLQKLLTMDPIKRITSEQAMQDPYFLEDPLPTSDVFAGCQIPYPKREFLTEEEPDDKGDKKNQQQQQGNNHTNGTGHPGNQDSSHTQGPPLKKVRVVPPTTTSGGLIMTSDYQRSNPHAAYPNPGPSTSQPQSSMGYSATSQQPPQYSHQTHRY
Sequence of CDK8/Cyclin C (P24863 whole entry, further chain): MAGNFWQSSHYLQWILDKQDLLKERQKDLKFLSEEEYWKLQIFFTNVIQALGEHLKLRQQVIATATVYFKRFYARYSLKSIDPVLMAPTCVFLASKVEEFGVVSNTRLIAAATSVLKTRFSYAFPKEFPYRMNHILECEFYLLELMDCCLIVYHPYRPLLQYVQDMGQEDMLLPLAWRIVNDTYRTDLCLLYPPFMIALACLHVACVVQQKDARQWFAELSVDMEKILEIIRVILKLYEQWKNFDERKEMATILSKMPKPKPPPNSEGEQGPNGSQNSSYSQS

| Structure (SMILES) | inhibition [1] | further results |
| --- | --- | --- |
| CNc1nccc(N2CCC(CC(=O)NCc3nc4ccccc4n3C)CC2)n1 | 24% |  |
| Cc1cccc(N2CCN(c3ncnc4onc(C)c34)CC2)c1C | 28% |  |
| Cc1ccc(Cl)cc1N1CCN(c2ncnc3sc(C(=O)O)c(C)c23)CC1 | 75% |  |
| COc1ccc(CNC(=O)Cn2cnc3c(C(N)=O)nsc3c2=O)cc1 | 4% |  |
| O=C(Nc1ccc(Cl)cc1)N1CCCC(c2cccc(C(=O)N3CCC4(CC3)OCCO4)c2)C1 (stereo not given) | -3% |  |
| CC(=O)N1CCC2(CC1)CC(=O)c1ccc(OCC(=O)Nc3cccc(C(F)(F)F)c3)cc1O2 | 95% | inhibition [2]: 69% |
| COc1ccc(C(=O)NCc2nnc(SCC(=O)Nc3cccc(C(F)(F)F)c3)o2)cc1OC |  | inhibition [3]: 4% |
| O=C(Cc1ccccc1F)Nc1ccc2ncnc(N3CCCC3)c2c1 | 14% |  |
| NC(=O)C1CC(=O)N(c2ccc(OCC(=O)Nc3cccc(C(F)(F)F)c3)cc2)C1 (stereo not given) |  | inhibition [3]: 12% |
| CC(=O)Nc1ccc(NC(=O)c2nnn(-c3ccc4noc(-c5ccc(Cl)cc5)c4c3)c2C)cc1 |  | inhibition [4]: 4% |
| CCNC(=O)c1cn(-c2ccc(SCC(=O)Nc3cccc(C(F)(F)F)c3)nn2)cn1 |  | inhibition [3]: 16% |
| CCOC(=O)c1c(C)oc2ncnc(NCCc3ccc(OCC)cc3)c12 | 9% |  |
| NNc1cc(N2CCN(c3ccccc3F)CC2)ncn1 | 3% |  |
| O=C(Nc1ccco1)NC1CCN(c2ncnc3c2CCC3)C1 (stereo not given) | 15% |  |
| COc1ccc(C(=O)N2CCCN(c3ccc(NC(=O)Nc4cccc(C(F)(F)F)c4)cn3)CC2)cc1 |  | inhibition [3]: 82% |
| O=C(NCC1CCN(c2nsc(Cc3ccc(F)cc3)n2)CC1)Nc1ccc(Cl)c(Cl)c1 | 101% | inhibition [2]: 101%; IC50 (CDK8/Cyclin C): 6.5 nM |
| O=C(Nc1ccc2c(c1)OCCO2)c1cccc(Nc2cc(-c3ccc(F)cc3)ncn2)c1 | 4% |  |
| Cc1c(C(=O)Nc2ccc(-n3cnnn3)cc2)nnn1-c1ccc2noc(-c3ccccc3)c2c1 |  | inhibition [4]: -2% |
| Cc1ccc(N2Cc3c(ncnc3N3CCCC(C(=O)NCc4cccc(C(F)(F)F)c4)C3)N2)cc1 (stereo not given) | -7% |  |
| Cc1nc(Nc2ccc(NC(=O)Nc3cccc(C(F)(F)F)c3)cc2)cc(N2CCCCC2)n1 | 97% | inhibition [2]: 61% |
| O=C(Nc1cccc(Cl)c1)Nc1nnc(CC(=O)N2CCCC2)s1 |  | inhibition [3]: 85%; IC50 (CDK8/Cyclin C): 183 nM |
| CCCn1c(=O)oc2cc(NC(=O)Nc3cccc(C)c3)ccc21 | 18% |  |
| CN[C@@H]1C[C@H]2O[C@@](C)([C@@H]1OC)n1c3ccccc3c3c4c(c5c6ccccc6n2c5c31)C(=O)NC4 | 99% | inhibition [2]: 100% |
| CC(=O)Nc1ccc(NC(=O)c2ccc3noc(-c4ccc(Cl)cc4)c3c2)cc1 |  | inhibition [4]: 43% |
| Cc1ccc(Cl)cc1N1CCN(C(=O)c2noc3ncnc(N4CCCC4)c23)CC1 | 4% |  |

| Structure (SMILES) | inhibition [1] | further results |
| --- | --- | --- |
| C=CCNC(=O)C1CCN(C(=O)Nc2ccc(NC(=O)Nc3cccc(F)c3)cc2)CC1 |  | inhibition [3]: 8% |
| O=C(CSc1ccc(N2CCCC(C(=O)NC3CC3)C2)nn1)Nc1cccc(C(F)(F)F)c1 (stereo not given) |  | inhibition [3]: 5% |
| Cc1c(C(=O)Nc2cccc(C(F)(F)F)c2)nnn1-c1ccc2noc(-c3ccc(Cl)cc3)c2c1 |  | inhibition [4]: 19% |
| Cc1ccc(-n2ncc(C(C)(C)C)c2NC(=O)CN(C)C(=O)Nc2ccccc2C)c(C)c1 | 13% |  |
| Cc1cc2nc(CSc3ccc(NC(=O)Nc4cccc(C(F)(F)F)c4)cc3)cc(=O)n2o1 |  | inhibition [3]: 59% |
| Cc1ccc(Nc2cc(Nc3ccc(NC(=O)Nc4cccc(F)c4)cc3)nc(C)n2)cc1 |  | inhibition [3]: 5% |
| COc1cc(NC(=O)N2CCN(c3cc(-c4ccc(C)cc4)ncn3)CC2)cc(OC)c1 | -6% |  |
| CCc1nnc(NS(=O)(=O)c2ccc(NC(=O)Nc3ccc(Cl)c(Cl)c3)cc2)s1 |  | inhibition [3]: 59% |
| Cc1nc(Nc2ccc(NC(=O)Nc3cccc(Cl)c3)cc2)cc(N2CCCCC2)n1 |  | inhibition [3]: 14% |
| CN(C)c1ccc(CNC(=O)C2CCN(c3ccc4nncn4n3)CC2)cc1 | 0% |  |
| O=C1Nc2ccc(F)cc2/C1=N\Nc1ccc(C(=O)N2CCCC2COc2ccc(F)cc2)cc1 (stereo not given) | 3% |  |
| Cc1ccc(-c2nc(C)cc(OCC(=O)Nc3ccc(C#N)cc3)n2)cc1 | -4% |  |
| CC(=O)Nc1ccc(NC(=O)c2nnn(-c3ccc4noc(-c5ccccc5)c4c3)c2C)cc1 |  | inhibition [4]: 59% |
| Cc1noc2ncnc(N3CCC(C(=O)NCCCN4CCOCC4)CC3)c12 | 1% |  |
| Cc1oc2ccccc2c1C(=O)CSc1nc(O)c2c(n1)NCN2 | 14% |  |
| COc1ccc(CNC(=O)C2CCCN(c3cnc4nccnc4c3)C2)cc1 (stereo not given) | 3% |  |
| CC(=O)c1ccc(NC(=O)COc2cc(C(F)(F)F)c3c(C)nn(-c4ccc(C)cc4)c3n2)cc1 | -6% |  |
| Cc1ccc(NC(=O)CCc2nc3ccncc3[nH]2)cc1F | 7% |  |
| Fc1ccc(N2CCN(c3ncnc4sc5c(c34)CCCC5)CC2)cc1 | 81% |  |
| O=C(Nc1cccc(C(F)(F)F)c1)Nc1nnc(SCc2nc3ccccc3[nH]c2=O)s1 |  | inhibition [3]: 100%; IC50 (CDK8/Cyclin C): 9 nM |
| Fc1ccc(-c2noc3ncnc(N4CCN(c5ccccn5)CC4)c23)cc1 | 19% |  |
| O=C(NC1CCCc2ccccc21)C1CCN(C2=CN3C(C=C2)NNC3c2ccc(Cl)cc2)CC1 (stereo not given) | -2% |  |
| CC(=O)Nc1ccc(NC(=O)Cc2csc(NC(=O)Nc3cccc(Cl)c3)n2)cc1 |  | inhibition [3]: 13% |
| C=CCNC(=O)C1CC(=O)N(c2ccc(OCC(=O)Nc3cccc(C(F)(F)F)c3)cc2)C1 (stereo not given) |  | inhibition [3]: 3% |

Further lines, with some results ahead:

| inhibition [1] | Structure (SMILES) | further results |
| --- | --- | --- |
| 0% | O=C(NC1C2CS(=O)(=O)CC2NN1c1ccc(F)cc1)c1ccc(C(=O)c2ccccc2)cc1 (stereo not given) |  |
| 0% | CCC(=O)Nc1nc2cc(NC(=O)c3cc(-c4ccccc4)nc4c(C)cccc34)ccc2s1 |  |
| 2% | CSc1cccc(NC(=O)NC2CCN(c3ccc(F)cc3)C2=O)c1 (stereo not given) |  |
| 10% | CCc1ccc(-n2c(SCc3ccccc3C)nc3[nH]ncc3c2=O)cc1 |  |
| 16% | CCOC(=O)Cc1ccc(NC(=O)NC(C(=O)N2CCc3ccccc32)c2ccccc2)cc1 (stereo not given) |  |
| 20% | COc1cccc(NC(=O)CSc2nc3ccc(NC(=O)Nc4cc(C)cc(C)c4)cc3s2)c1 |  |
| -3% | CCNc1c(NC(=O)NCc2ccc(C)cc2)c(=O)oc2ccccc12 |  |
| 10% | CC(=O)c1ccc(NC(=O)COc2cc(-c3ccccc3)nc3ccc(F)cc23)cc1 |  |
| 1% | COc1ccc(OC)c(NC(=O)Nc2ccc(Cn3cnc(-c4nc(-c5ccc(F)cc5)no4)c3)cc2)c1 |  |
| 0% | Cc1cc(C)c2c(n1)SCCN2C(=O)Nc1ccc(C(=O)NCc2cccc(Cl)c2)cc1 |  |
| -1% | O=C(Nc1cccc2ccccc12)c1cccc(C2CSC(S(=O)(=O)N3CCOCC3)C2)c1 (stereo not given) |  |
| 46% | CCc1ccc(NC(=O)c2c(O)c3ccccc3n(CC)c2=O)cc1 |  |
| 27% | CCCc1c(C(=O)Nc2ccc(NC(C)=O)cc2)nnn1-c1ccc2noc(-c3ccccc3)c2c1 |  |
| 99% | COc1ccc(CC(=O)N2CCN(c3ccc(NC(=O)Nc4cccc(C(F)(F)F)c4)cc3)CC2)cc1 | inhibition [2]: 95%; IC50 (CDK8/Cyclin C): 36 nM |
| 0% | O=C(OCc1cc(=O)n2nc(C3CC3)sc2n1)c1ccc(NC(=O)c2cccc3ccccc23)cc1 |  |
| 18% | O=C(Nc1c(C(=O)c2ccccc2)oc2ccccc12)c1cc(-c2ccc3c(c2)OCCO3)on1 |  |
| 0% | COc1ccc(-n2nc(C(=O)NCC(=O)N3CCC(Cc4ccccc4)CC3)c3ccccc3c2=O)cc1 |  |
| 6% | Cc1ccc2sc(NNC(=O)c3ccc(S(=O)(=O)CN4CCc5ccccc5C4)cc3)nc2c1C |  |
| -2% | CCn1c(=O)c(=O)n(CC(=O)NCc2ccccc2)c2ccccc21 |  |
| 11% | CCOC(=O)Cc1ccc(NC(=O)Nc2cc3c(cc2N2CCCC2)n(CC)c(=O)n3CC)cc1 |  |
| 14% | O=C(Cc1ccc(NC(=O)N2CCSc3ncccc32)cc1)NCc1cccc(Cl)c1 |  |
| 52% | Cc1c(C(=O)Nc2ccc3ccc(=O)oc3c2)nnn1-c1ccc2noc(-c3ccccc3)c2c1 |  |
| 5% | CCOc1ccc(NC(=O)N2CCCC(c3cccc(C(=O)Nc4cccc(Cl)c4)c3)C2)cc1 (stereo not given) |  |
| 2% | Cc1ccc(-c2nccc(Nc3cccc(C(=O)NCc4ccc(C(C)C)cc4)c3)n2)cc1 |  |
| 80% | CC(=O)c1cccc(NC(=O)c2nnn(-c3ccc4noc(-c5ccccc5)c4c3)c2C)c1 | IC50 (CDK8/Cyclin C): 93 nM |
| -6% | CN1C(=O)c2ccccc2C(C(=O)Nc2ccc(S(=O)(=O)N3CCCCC3)cc2)C1c1cccs1 (stereo not given) |  |
